Assay [1] relates to Karpas ADCr cells (ADCT-301 acquired resistant Karpas-299). Description: MTS in vitro cytotoxicity, 96 h continuous exposure. Here is the method: (§1) To generate a resistant population to either ADCT-301 or SG3199, human anaplastic large cell lymphoma Karpas-299 cells (expressing CD25) were incubated with an approximate IC50 dose of the drug for 96 hours. The cells were then washed and returned to fresh medium until normal cell growth was recovered. This process was repeated until a measurable and stable loss in cytotoxic efficacy was established using the MTS assay.
(§2) To measure the in vitro cytotoxicity with the MTS assay, cells were incubated with a 10-fold dilution range of ADCT-301 or SG3199, and incubated with continuous exposure for 96 hours (at least three cell doubling times under normal cell culture conditions). After incubation the […] AQueous One Solution Cell Proliferation Assay (MTS) was used to measure growth inhibition, by adding 20 μl reagent to the cells and incubating for 3-4 hours, then reading the absorbance at 492 nm. Mean % growth of the ADC or PBD treated cells was calculated relative to an untreated control.
(§3) To measure the cross-resistance of the Karpas ADCR cells to the SG3199 PBD warhead, and the PBDR cells to ADCT-301, the in vitro cytotoxicity assay was carried out as described above, treating the cells with the opposite drug molecule to the one with which they were generated.
(§4) To measure the cross-resistance of the Karpas ADCR and PBDR cells to the PBD dimer warhead SG2000, the in vitro cytotoxicity (MTS) assay was carried out as previously described in Example 2.

The subject of assay [2] is Karpas PBDr cells (SG3199 acquired resistant Karpas-299). Described as above. As to the method:
as §1, §2, §3, §4

Assay [3] concerns NCI-N87 wt cells. Description: MTS in vitro cytotoxicity, 144 h continuous exposure. Type of assay: cell-based, human. The conditions noted are these: NCI-N87 wt, 144 h continuous exposure, mean; read-out: IC50.
Procedure: (§12) To generate a resistant population to either ADCT-502 or SG3199, human gastric cancer NCI-N87 cells (expressing HER2) were incubated with an approximate IC50 dose of the drug for 144 hours. The cells were then washed and returned to fresh medium until normal cell growth was recovered. This process was repeated until a measurable and stable loss in cytotoxic efficacy was established using the MTS assay.
(§13) To measure the in vitro cytotoxicity with the MTS assay, cells were incubated with a 10-fold dilution range of ADCT-502 or SG3199, and incubated with continuous exposure for 144 hours (at least three cell doubling times under normal cell culture conditions). After incubation the CellTiter 960 AQueous One Solution Cell Proliferation Assay (MTS) was used to measure growth inhibition, by adding 20 μl reagent to the cells and incubating for 3-4 hours, then reading the absorbance at 492 nm. Mean % growth of the ADC or PBD treated cells was calculated relative to an untreated control.
(§14) To measure the cross-resistance of the NCI-N87 ADCR cells to the SG3199 PBD warhead, and the PBDR cells to ADCT-502, the in vitro cytotoxicity assay was carried out as described above, treating the cells with the opposite drug molecule to the one with which they were generated.
The subject of assay [4] is NCI-N87 ADCr cells (ADCT-502 acquired resistant). The description is as above. Type of assay: cell-based, human.
Procedure: as §12, §13, §14
Assay [5] deals with NCI-N87 PBDr cells (SG3199 acquired resistant). The description is as above. Type of assay: cell-based, human.
Procedure: as §12, §13, §14
The test system of another assay is Karpas ADCr cells. In words: DNA interstrand cross-linking, comet assay. It counts as cell-based, human. The conditions noted are these: 130 μM ADCT-301 or 280 μM SG3199 (figure legends: pM) for 2 hours, then 24 hours. Here is the method:
(§5) The formation of inter-strand cross-links (ICLs) by either ADCT-301 or SG3199 was measured using a modification of the single cell gel electrophoresis (comet) assay (Spanswick V J, Hartley J M, Hartley J A. Measurement of DNA interstrand crosslinking in individual cells using the Single Cell Gel Electrophoresis (Comet) assay. Methods Mol Biol. 613, 267-82 (2010)). Cells were treated with […] ADCT-301 or […] SG3199 for 2 hours, then washed and incubated for 24 hours under normal cell culture conditions. All cells were irradiated with 18 Gy (5 Gy/min for 3.6 min). Comet slides were reviewed under a 20× objective on an epifluorescence microscope equipped with: Hg arc lamp; 580 nm dichroic mirror; and 535 nm excitation and 645 nm emission filters suitable for visualising of propidium iodide staining with a minimum of 50 Comet images acquired per treatment condition. The Olive Tail Moment (OTM) was determined as the product of the tail length and the fraction of total DNA in the tail as recorded by Komet 6 software (Andor Technology, Belfast, UK) and the percentage reduction in OTM calculated according to the formula:
(§6) % decrease in tail moment=[1−(TMdi−TMcu)/(TMci−TMcu)]*100 • [TMdi=Tail Moment drug irradiated; TMcu=TM control un-irradiated; TMci=TM control irradiated]
(§7) The results are shown in FIG. 18 for the ADCR line and FIG. 19 for the PBDR line.

A further assay has as its system Karpas PBDr cells. In words: DNA interstrand cross-linking, comet assay. Type of assay: cell-based, human. The conditions noted are these: 130 μM ADCT-301 or 280 μM SG3199 (figure legends: pM) for 2 hours, then 24 hours. Here is the method: as §5, §6, §7
The test system of assay [6] is NCI-N87 ADCr cells. Description: DNA interstrand cross-linking, comet assay. Type of assay: cell-based, human. The conditions noted are these: 1 nM ADCT-502 or 1.7 nM SG3199 for 2 hours, then 24 hours. As to the method:
(§8) The formation of inter-strand cross-links (ICLs) by either ADCT-502 or SG3199 was measured using the modification of the single cell gel electrophoresis (comet) assay. Cells were treated with 1 nM ADCT-502 or 1.7 nM SG3199 for 2 hours, then washed and incubated for 24 hours under normal cell culture conditions. All cells were irradiated with 18 Gy (5 Gy/min for 3.6 min). ICL formation was quantitated by measuring Olive tail moment (OTM) using the Komet 4 software, and the percentage reduction in OTM compared to an untreated irradiated control.
(§9) The results are shown in FIG. 20 for the ADCR line and FIG. 21 for the PBDR line.

For assay [7], the system named is NCI-N87 PBDr cells. Description: DNA interstrand cross-linking, comet assay. The conditions noted are these: 1 nM ADCT-502 or 1.7 nM SG3199 for 2 hours, then 24 hours. Type of assay: cell-based, human. Here is the method:
as §8, §9

Assay [8] relates to NCI-N87 wt cells. Description: DNA interstrand cross-linking, comet assay. Type of assay: cell-based, human. The conditions noted are these: 1 nM ADCT-502 or 1.7 nM SG3199 for 2 hours, then 24 hours. As to the method: as §8, §9
Assay [9] deals with NCI-N87 ADCr cells. Description: Single dose 2-hour exposure cytotoxicity (MTS). Type of assay: cell-based, human. The conditions noted are these: 1 nM ADCT-502 or 1 nM SG3199 for 2 hours, then 144 hours. Here is the method: (§10) To investigate growth inhibition under the same conditions under which DNA ICL formation was measured, NCI-N87-ADCR cells were treated with 1 nM ADCT-502, and PBDR cells treated with 1.7 nM SG3199 for 2 hours, then washed and incubated for 144 hours under normal cell culture conditions. The MTS assay and calculation of % growth compared to the untreated control was carried out as previously described.
(§11) To investigate whether the cross-resistance in ICL formation observed in the NCI-N87 resistant cell lines also correlates with growth inhibition at this dose, ADCR cells were treated with 1 nM SG3199, and PBDR cells treated with 1.7 nM ADCT-502 for 2 hours, then washed and incubated for 144 hours under normal cell culture conditions. The MTS assay and calculation of % growth compared to the untreated control was carried out as previously described. The results are shown in FIG. 24 for the ADCR line and FIG. 25 for the PBDR line.

The subject of assay [10] is NCI-N87 PBDr cells. In words: Single dose 2-hour exposure cytotoxicity (MTS). The conditions noted are these: 1.7 nM ADCT-502 or 1.7 nM SG3199 for 2 hours, then 144 hours. It counts as cell-based, human. As to the method: as §10, §11
For assay [11], the system named is human tumor cell lines expressing MDR1. The conditions noted are these: cited from earlier work.

Turning to `COc1cc2c(cc1OCCCCCOc1cc3c(cc1OC)C(=O)N1C=C(C)C[C@H]1C=N3)N=C[C@@H]1CC(C)=CN1C2=O` [SG3199], the “fold resistance compared to wildtype” value in assay [1] (Karpas ADCr vs Karpas wt IC50) worked out at 4.4 fold; in assay [2] (Karpas PBDr vs Karpas wt IC50), 2.9 fold; in assay [4] (NCI-N87 ADCr vs NCI-N87 wt IC50) it was 3.8 fold; in [5] (NCI-N87 PBDr vs NCI-N87 wt IC50), 3.7 fold. The IC50 in assay [1] (read-out: IC50 pM, Karpas ADCr, 96 h continuous exposure, mean) was found to be 306 pM; in assay [2] (read-out: IC50 pM, Karpas PBDr, 96 h continuous exposure, mean), 205 pM; in the assay with NCI-N87 wt cells [3], 0.0159 nM; in [4] (NCI-N87 ADCr, 144 h continuous exposure, mean, read-out: IC50), 0.0604 nM; in [5] (NCI-N87 PBDr, 144 h continuous exposure, mean, read-out: IC50), 0.0586 nM. The “% red. OTM” value in the assay with Karpas ADCr cells was 7.2%; in the assay with Karpas PBDr cells it was 25.7%; in the assay on NCI-N87 ADCr cells [6] it was 24%; in the assay on NCI-N87 PBDr cells [7], 30.7%; in the assay on NCI-N87 wt cells [8] it was 51.0%. Further, the “2 hr mean % growth” value came to 57.2% in the assay with NCI-N87 ADCr cells [9] and 76.6% with NCI-N87 PBDr cells [10]. The “susceptibility to multidrug resistance mechanisms” value in assay [11] is reported as “susceptible to multidrug resistance mechanisms”.

The term IC50 denotes the concentration needed to halve the response being measured.

The record behind these values is US20220347309A1, “PYRROLOBENZODIAZEPINE RESISTANCE” (ADC THERAPEUTICS SA, priority 2018, published 2022).
